According to patent US10160762B2, “6-alkyl dihydropyrazolopyrimidinone compounds as PDE2 inhibitors” (Merck Sharp & Dohme Corp., priority 2015, dated 2018):

The compounds below were run against T1, human PDE2A1 (Homo sapiens, UniProt O00408) (assay: IMAP FP PDE assay, human PDE2A1). Details: Lab A; read-out: Human PDE2 Ki (nM) Lab A.
T1 construct: GST; purchased BPS Bioscience (San Diego, Calif.) 60020; host or cells: insect cells
Assay type: biochemical
How it was run: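 GST-tagged human PDE2A1 from insect cells; substrate 50 nM FAM-cAMP containing 1000 nM cGMP in Tris pH 7.2/MgCl2/DTT buffer, enzyme giving 20% conversion. 60 min at room temperature, IMAP binding reagent, fluorescence polarization read. Apparent Ki from FP readings using apparent KM 10,000 nM; ten-point 3-fold titrations.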

T1 sequence (O00408 1-920 isoform O00408-2): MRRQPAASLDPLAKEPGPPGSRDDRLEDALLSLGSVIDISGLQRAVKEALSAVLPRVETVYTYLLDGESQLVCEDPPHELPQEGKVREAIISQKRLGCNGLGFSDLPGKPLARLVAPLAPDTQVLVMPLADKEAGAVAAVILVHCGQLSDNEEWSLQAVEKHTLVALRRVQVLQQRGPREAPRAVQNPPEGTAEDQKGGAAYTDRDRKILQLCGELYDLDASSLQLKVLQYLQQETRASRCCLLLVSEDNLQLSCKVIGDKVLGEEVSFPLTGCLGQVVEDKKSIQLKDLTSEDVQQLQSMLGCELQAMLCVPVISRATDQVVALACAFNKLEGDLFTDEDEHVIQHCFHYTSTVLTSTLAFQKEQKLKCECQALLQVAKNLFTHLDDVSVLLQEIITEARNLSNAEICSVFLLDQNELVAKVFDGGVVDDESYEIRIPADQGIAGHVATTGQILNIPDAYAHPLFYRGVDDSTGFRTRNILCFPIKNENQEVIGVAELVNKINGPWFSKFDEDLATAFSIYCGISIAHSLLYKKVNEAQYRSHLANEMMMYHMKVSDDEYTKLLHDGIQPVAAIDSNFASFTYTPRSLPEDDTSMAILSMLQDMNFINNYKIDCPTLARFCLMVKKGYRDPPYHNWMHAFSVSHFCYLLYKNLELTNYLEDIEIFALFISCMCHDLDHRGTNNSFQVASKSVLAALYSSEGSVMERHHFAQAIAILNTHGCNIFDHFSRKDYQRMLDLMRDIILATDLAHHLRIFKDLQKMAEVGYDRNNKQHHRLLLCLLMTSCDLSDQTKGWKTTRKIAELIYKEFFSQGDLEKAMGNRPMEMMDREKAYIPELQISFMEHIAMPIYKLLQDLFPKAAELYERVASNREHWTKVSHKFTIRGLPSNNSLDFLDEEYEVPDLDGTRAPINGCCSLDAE

SMILES	Ki [nM]
Cc1nc2c(c(C)nn2C(C)c2ccc(C(F)(F)F)cc2)c(=O)[nH]1 (single isomer, unassigned) [Example 36]	428
COc1ccc(Cc2nc3c(c(CF)nn3C(C)c3ccc(C(F)(F)F)cc3)c(=O)[nH]2)cc1OC (single isomer, unassigned) [Example 222, (R)- or (S)-6-(3,4-Dimethoxybenzyl)-3-(fluoromethyl)-1-(1-(4-(trifluoromethyl)phenyl)ethyl)-1,5-dihydro-4H-pyrazolo[3,4-d]pyrimidin-4-one]	< 5.1
COc1ccc(Cc2nc3c(c(CF)nn3C(C)c3ccc(C(F)(F)F)cc3)c(=O)[nH]2)cc1OC (single isomer, unassigned) [Example 223, (S)- or (R)-6-(3,4-Dimethoxybenzyl)-3-(fluoromethyl)-1-(1-(4-(trifluoromethyl)phenyl)ethyl)-1,5-dihydro-4H-pyrazolo[3,4-d]pyrimidin-4-one]	12

Other lines, results leading:

Ki [nM]	SMILES
130	Cc1nc2c(c(CO)nn2C(C)c2ccc(C(F)(F)F)cc2)c(=O)[nH]1 (single isomer, unassigned) [Example 26, (R)- or (S)-3-(Hydroxymethyl)-6-methyl-1-{1-[4-(trifluoromethyl)phenyl]ethyl}-1,5-dihydro-4H-pyrazolo[3,4-d]pyrimidin-4-one]
1.4	Cc1nc2c(c(CO)nn2C(C)c2ccc(C(F)(F)F)cc2)c(=O)[nH]1 (single isomer, unassigned) [Example 27, (S)- or (R)-3-(Hydroxymethyl)-6-methyl-1-{1-[4-(trifluoromethyl)phenyl]ethyl]-1,5-dihydro-4H-pyrazolo[3,4-d]pyrimidin-4-one]
23	Cc1nc2c(c(C)nn2C(C)c2ccc(C(F)(F)F)cc2)c(=O)[nH]1 (single isomer, unassigned) [Example 37]

Same assay, conditions: Lab B; read-out: Human PDE2 Ki (nM) Lab B

SMILES	Ki [nM]
Cc1nc2c(c(C(F)F)nn2C(C)c2ccc(C(F)(F)F)cc2)c(=O)[nH]1 (single isomer, unassigned) [Example 176]	1.3
Cc1nc2c(c(C(F)F)nn2C(C)c2ccc(OC(F)F)cc2)c(=O)[nH]1 (single isomer, unassigned) [Example 182, (S)- or (R)-1-(1-(4-(Difluoromethoxy)phenyl)ethyl)-3-(difluoromethyl)-6-methyl-1H-pyrazolo[3,4-d]pyrimidin-4(5H)-one]	0.84
COc1ccc(Cc2nc3c(c(C(F)F)nn3C(C)c3ccc(C(F)(F)F)cc3)c(=O)[nH]2)cc1OC (single isomer, unassigned) [Example 196]	61
COc1ccc(Cc2nc3c(c(C(F)F)nn3C(C)c3ccc(C(F)(F)F)cc3)c(=O)[nH]2)cc1OC (single isomer, unassigned) [Example 197]	0.23
Cc1nc2c(c(CF)nn2C(C)c2ccc(S(F)(F)(F)(F)F)cc2)c(=O)[nH]1 (single isomer, unassigned) [Example 200]	2
Cc1nc2c(c(CF)nn2C(c2ccc(C(F)(F)F)cc2)C2(C)CC2)c(=O)[nH]1 (single isomer, unassigned) [Example 209]	0.99
Cc1nc2c(c(CF)nn2C(c2ccc(C(F)(F)F)cc2)C(C)C)c(=O)[nH]1 (single isomer, unassigned) [Example 212, (R)- or (S)-3-(Fluoromethyl)-6-methyl-1-(2-methyl-1-(4-(trifluoromethyl)phenyl)propyl)-1H-pyrazolo[3,4-d]pyrimidin-4(5H)-one]	43
Cc1nc2c(c(CF)nn2C(c2ccc(C(F)(F)F)cc2)C(C)C)c(=O)[nH]1 (single isomer, unassigned) [Example 213, (S)- or (R)-3-(Fluoromethyl)-6-methyl-1-(2-methyl-1-(4-(trifluoromethyl)phenyl)propyl)-1H-pyrazolo[3,4-d]pyrimidin-4(5H)-one]	0.19
Cc1nc2c(c(CF)nn2C(C)c2ccc(C(C)(C)C)cc2)c(=O)[nH]1 (single isomer, unassigned) [Example 214, (R)- or (S)-1-(1-(4-tert-Butylphenyl)ethyl)-3-(fluoromethyl)-6-methyl-1H-pyrazolo[3,4-d]pyrimidin-4(5H)-one]	307
Cc1nc2c(c(CF)nn2C(C)c2ccc(C(C)(C)C)cc2)c(=O)[nH]1 (single isomer, unassigned) [Example 215, (S)- or (R)-1-(1-(4-tert-Butylphenyl)ethyl)-3-(fluoromethyl)-6-methyl-1H-pyrazolo[3,4-d]pyrimidin-4(5H)-one]	0.48
COc1ccc(Cc2nc3c(c(CF)nn3C(C)c3ccc(C(F)(F)F)cc3)c(=O)[nH]2)cc1OC (single isomer, unassigned) [Example 222, (R)- or (S)-6-(3,4-Dimethoxybenzyl)-3-(fluoromethyl)-1-(1-(4-(trifluoromethyl)phenyl)ethyl)-1,5-dihydro-4H-pyrazolo[3,4-d]pyrimidin-4-one]	0.34

Results, then the compound that gave them:

Ki [nM]	SMILES
50	Cc1nc2c(c(CO)nn2C(C)c2ccc(OC(F)(F)F)c(F)c2)c(=O)[nH]1 (single isomer, unassigned) [Example 10, (R)- or (S)-1-(1-(3-Fluoro-4-(trifluoromethoxy)phenyl)ethyl)-3-(hydroxymethyl)-6-methyl-1H-pyrazolo[3,4-d]pyrimidin-4(5H)-one]
1.9	Cc1nc2c(c(CO)nn2C(C)c2ccc(OC(F)(F)F)c(F)c2)c(=O)[nH]1 (single isomer, unassigned) [Example 11, (S)- or (R)-1-(1-(3-Fluoro-4-(trifluoromethoxy)phenyl)ethyl)-3-(hydroxymethyl)-6-methyl-1H-pyrazolo[3,4-d]pyrimidin-4(5H)-one]
205	Cc1nc2c(c(CO)nn2C(C)c2ccc(C(F)(F)F)c(F)c2)c(=O)[nH]1 (single isomer, unassigned) [Example 12, (R)- or (S)-1-(1-(3-Fluoro-4-(trifluoromethyl)phenyl)ethyl)-3-(hydroxymethyl)-6-methyl-1H-pyrazolo[3,4-d]pyrimidin-4(5H)-one]
1.7	Cc1nc2c(c(CO)nn2C(C)c2ccc(C(F)(F)F)c(F)c2)c(=O)[nH]1 (single isomer, unassigned) [Example 13, (S)- or (R)-1-(1-(3-Fluoro-4-(trifluoromethyl)phenyl)ethyl)-3-(hydroxymethyl)-6-methyl-1H-pyrazolo[3,4-d]pyrimidin-4(5H)-one]
236	Cc1nc2c(c(CO)nn2C(C)c2ccc(C(F)(F)F)cc2)c(=O)[nH]1 (single isomer, unassigned) [Example 26, (R)- or (S)-3-(Hydroxymethyl)-6-methyl-1-{1-[4-(trifluoromethyl)phenyl]ethyl}-1,5-dihydro-4H-pyrazolo[3,4-d]pyrimidin-4-one]
3.4	Cc1nc2c(c(CO)nn2C(C)c2ccc(C(F)(F)F)cc2)c(=O)[nH]1 (single isomer, unassigned) [Example 27, (S)- or (R)-3-(Hydroxymethyl)-6-methyl-1-{1-[4-(trifluoromethyl)phenyl]ethyl]-1,5-dihydro-4H-pyrazolo[3,4-d]pyrimidin-4-one]
18	Cc1nc2c(c(CO)nn2C(c2ccc(OC(F)(F)F)cc2)C2CC2)c(=O)[nH]1 (single isomer, unassigned) [Example 94, (R)- or (S)-1-(Cyclopropyl(4-(trifluoromethoxy)phenyl)methyl)-3-(hydroxymethyl)-6-methyl-1H-pyrazolo[3,4-d]pyrimidin-4(5H)-one]
2	Cc1nc2c(c(CO)nn2C(c2ccc(OC(F)(F)F)cc2)C2CC2)c(=O)[nH]1 (single isomer, unassigned) [Example 95, (S)- or (R)-1-(Cyclopropyl(4-(trifluoromethoxy)phenyl)methyl)-3-(hydroxymethyl)-6-methyl-1H-pyrazolo[3,4-d]pyrimidin-4(5H)-one]
5.7	Cc1nc2c(c(CO)nn2C(c2ccc(OC(F)(F)F)c(F)c2)C(C)C)c(=O)[nH]1 (single isomer, unassigned) [Example 126, (R)- or (S)-1-(1-(3-Fluoro-4-(trifluoromethoxy)phenyl)-2-methylpropyl)-3-(hydroxyl-methyl)-6-methyl-1H-pyrazolo-[3,4-d]pyrimidin-4(5H)-one]
0.98	Cc1nc2c(c(CO)nn2C(c2ccc(OC(F)(F)F)c(F)c2)C(C)C)c(=O)[nH]1 (single isomer, unassigned) [Example 127, (S)- or (R)-1-(1-(3-Fluoro-4-(trifluoromethoxy)phenyl)-2-methylpropyl)-3-(hydroxymethyl)-6-methyl-1H-pyrazolo[3,4-d]pyrimidin-4(5H)-one]
8.9	Cc1nc2c(c(CO)nn2C(c2ccc(C(F)(F)F)c(F)c2)C(C)(C)C)c(=O)[nH]1 (single isomer, unassigned) [Example 129, (S)- or (R)-1-(1-(3-Fluoro-4-(trifluoromethyl)phenyl)-2,2-dimethylpropyl)-3-(hydroxyl-methyl)-6-methyl-1H-pyrazolo-[3,4-d]pyrimidin-4(5H)-one]
1.1	CCC(c1ccc(C(F)(F)F)cc1)n1nc(CO)c2c(=O)[nH]c(C)nc21 (single isomer, unassigned) [Example 132, (R)- or (S)-3-(Hydroxymethyl)-6-methyl-1-(1-(4-(trifluoro-methyl)phenyl)propyl)-1H-pyrazolo[3,4-d]pyrimidin-4(5H)-one]
83	Cc1nc2c(c(CF)nn2C(C)c2ccc(OC(F)(F)F)cc2)c(=O)[nH]1 (single isomer, unassigned) [Example 206, (R)- or (S)-3-(Fluoromethyl)-6-methyl-1-(1-(4-(trifluoro-methoxy-)phenyl)ethyl)-1H-pyrazolo[3,4-d]pyrimidin-4(5H)-one]
1.1	Cc1nc2c(c(CF)nn2C(C)c2ccc(OC(F)(F)F)cc2)c(=O)[nH]1 (single isomer, unassigned) [Example 207, (S)- or (R)-3-(Fluoromethyl)-6-methyl-1-(1-(4-(trifluoromethoxy)phenyl)ethyl)-1H-pyrazolo[3,4-d]pyrimidin-4(5H)-one]
0.65	Cc1nc2c(c(CF)nn2C(C)c2ccc(CC(F)(F)F)cc2)c(=O)[nH]1 (single isomer, unassigned) [Example 211, (S)- or (R)-3-(Fluoromethyl)-6-methyl-1-(1-(4-(2,2,2-trifluoroethyl)phenyl)ethyl)-1H-pyrazolo[3,4-d]pyrimidin-4(5H)-one]
36	Cc1nc2c(c(CF)nn2C(C)c2ccc(OC(F)(F)F)c(F)c2)c(=O)[nH]1 (single isomer, unassigned) [Example 216, (R)- or (S)-1-(1-(3-Fluoro-4-(trifluoromethoxy)phenyl)ethyl)-3-(fluoromethyl)-6-methyl-1H-pyrazolo[3,4-d]pyrimidin-4(5H)-one]
0.7	Cc1nc2c(c(CF)nn2C(C)c2ccc(OC(F)(F)F)c(F)c2)c(=O)[nH]1 (single isomer, unassigned) [Example 217, (S)- or (R)-1-(1-(3-Fluoro-4-(trifluoromethoxy)phenyl)ethyl)-3-(fluoromethyl)-6-methyl-1H-pyrazolo[3,4-d]pyrimidin-4(5H)-one]
